According to US20240033244A1, “COMPOSITIONS AND METHODS FOR INHIBITING YTHDF1” (SHANGHAI INSTITUTE OF MATERIA MEDICA, CHINESE ACADEMY OF …, priority 2020, published 2024):

How the values were obtained:
[1] = tested on: B16-OVA tumor; test: B16-OVA tumor growth in Rag1-/- versus wild-type mice; assay type: in vivo, mouse; settings: 1×10^5 B16-OVA, 10 μM SAA day 7 to day 9
Procedure: For B6 mice tumor growth, 5×10^5 B16-OVA or 1×10^6 E.G7-OVA tumor cells were inoculated subcutaneously (s.c.) into the flank of mice. Tumor length (a) and width (b) was measured every two days and tumor volume was calculated by the formula ab^2/2. For the inhibitor treatment, 10 μM SAA or DMSO was injected intraperitoneally (i.p.) on day 9 and 11 after tumor inoculation. For other mice model (rag1^−/− and Ythdf1 conditional knockout), times and dose of inhibitor treatment was the same. For α-PD-L1 and SAA combination treatment, 5×10^5 B16-OVA tumor cells were inoculated subcutaneously into the flank of mice. 100 μg α-PD-L1 antibody (clone 10F.9G2) or rat immunoglobulin were administered at day 9 after tumor inoculation. 10 μM SAA or DMSO was administered in the same way on day 9 and 11 after tumor injection.
T/B cell-deficient Rag1^−/− mice were inoculated with 1×10^5 B16-OVA cells, and 10 μM SAA was then injected to each mouse from day 7 to day 9, and tumor growth was monitored, wild type mice were used as control group.

[2] = tested on: tumor infiltrating T cells; test: Tumor infiltrating T cell function (PMA/ionomycin, intracellular staining); assay type: in vivo, mouse; settings: B16-OVA bearing mice, PMA and ionomycin stimulation
Procedure: Tumor infiltrating leukocytes were resuspended by RPMI 1640 medium at 5×10^6 per mL in 96-well plates. Phorbol-12-myristate-13-acetate (PMA) (2.5 μg/mL) and ionomycin (0.5 μg/mL) were used to stimulate T cells together with brefeldin A were added to the culture medium for 2 hours at 37° C. Cell concentration of total lymphocytes from draining lymph node was adjusted to 5×10^6 per mL in 96-well plate. 1 μg/mL OT-1 (OVA 257-264) peptide was added to the wells and stimulated for 96 hours. Samples were stained with CD45 and CD8 on ice for 30 min. Intracellular staining was performed to quantify IFN-γ and granzyme B production.
To explore the effects of SAA treatment on T cell function, SAA treated B16-OVA bearing mice were sacrificed to investigate tumor infiltrating T cell (TILs) function. Firstly, Phorbol-12-myristate-13-acetate (PMA) and ionomycin were used to nonspecifically stimulate tumor infiltrating T cell, then intracellular staining was performed to quantify cytokine (e.g., IFN-γ, granzyme B) production by FACS.

[3] = tested on: FLT3L-DCs; test: FLT3L-DC cross-priming of OT-I T cells in vitro (IFN-γ cytometric bead array); assay type: cell-based, mouse; settings: 10 μM SAA 12 hours
Procedure: Bone marrow was isolated from wild-type and Ythdf1^−/− mice and treated with red cell lysis buffer to remove red blood cell. IMDM medium containing 10% fetal bovine serum was used to suspend bone marrow cells. To culture FLT3L-DCs, cell concentration was adjusted to 1×10^6/mL. Cells were cultured with 100 ng/mL FLT3L for 9 days to get mature FLT3L-DCs. Mature FLT3L-DCs were purified via EasySep Mouse CD11c Positive Selection Kit II, then treated with 10 μM SAA or DMSO in IMDM medium (contain 10% bovine and 100 ng/mL FLT3L) for 10 hours.
For in vitro cross-presentation study, mature FLT3L-DCs were harvested on day 9 and purified by EasySep Mouse CD11 c Positive Selection Kit II, then treated with 10 μM SAA or DMSO in IMDM medium (contain 10% bovine and 100 ng/mL FLT3L) for 10 h. […] Then antigen-obtained DCs were purified and co-cultured with naïve T cells from OT-1 mice at a ratio of 1:10 for 96 h. The co-culture medium was 1640 RPMI contains 10% fetal bovine with or without 1 μg/mL OT-1 (OVA 257-264) peptide. […] Supernatant IFN-γ production was detected via CBA assay.
Bone marrow derived cells (wildtype or Ythdf1 gene deficient) were cultured with FLT3L for 9 days to get FLT3L-DC and these DCs were treated with 10 μM SAA for 12 hours, then, FLT3L-DCs were co-cultured with necrotic B16-OVA tumor cell for 6 hours. […] IFN-γ production was assessed by IFN-γ cytometric bead array.

## O=C(/C=C/c1ccc(O)c(O)c1/C=C/c1ccc(O)c(O)c1)O[C@H](Cc1ccc(O)c(O)c1)C(=O)O [SAA, Salvianolic Acid A]
[1]
  tumor growth: tumor growth was arrested
[2]
  cytokine (IFN-γ, granzyme B) production by tumor infiltrating T cells: higher level of cytokines than DMSO group
[3]; Ythdf1-/- FLT3L-DCs
  cross-presentation function (IFN-γ production): could also promote the cross-presentation function
[3]; wildtype FLT3L-DCs
  cross-priming of T cells (IFN-γ production): better ability in cross-priming T cells than control group
